Results published in patent publication US11951094B2, “TLR2 modulator compounds, pharmaceutical compositions and uses thereof” (Axial Therapeutics, Inc., priority 2020, dated 2024).
Counter-ions that a name gives are not always drawn.

Target: TLR2 (Homo sapiens, UniProt O60603)
Test: TLR2 agonist screening assay, HEK-Blue TLR2 reporter cell line (NF-kB-driven SEAP, absorbance at 600 nm)
Format: cell-based
Parameters: host or cells: HEK-293 (HEK-Blue TLR2 reporter cell line)
Conditions: HEK-Blue TLR2 reporter cells, agonist mode
Procedure, shortened: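 TLR2 engagement is scored through NF-kB-induced secreted alkaline phosphatase in HEK-293 cells, detected by substrate colour change at 600 nm after overnight compound treatment at 1% final DMSO. Potency is expressed as EC50.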

Chain of TLR2 (O60603 21-784): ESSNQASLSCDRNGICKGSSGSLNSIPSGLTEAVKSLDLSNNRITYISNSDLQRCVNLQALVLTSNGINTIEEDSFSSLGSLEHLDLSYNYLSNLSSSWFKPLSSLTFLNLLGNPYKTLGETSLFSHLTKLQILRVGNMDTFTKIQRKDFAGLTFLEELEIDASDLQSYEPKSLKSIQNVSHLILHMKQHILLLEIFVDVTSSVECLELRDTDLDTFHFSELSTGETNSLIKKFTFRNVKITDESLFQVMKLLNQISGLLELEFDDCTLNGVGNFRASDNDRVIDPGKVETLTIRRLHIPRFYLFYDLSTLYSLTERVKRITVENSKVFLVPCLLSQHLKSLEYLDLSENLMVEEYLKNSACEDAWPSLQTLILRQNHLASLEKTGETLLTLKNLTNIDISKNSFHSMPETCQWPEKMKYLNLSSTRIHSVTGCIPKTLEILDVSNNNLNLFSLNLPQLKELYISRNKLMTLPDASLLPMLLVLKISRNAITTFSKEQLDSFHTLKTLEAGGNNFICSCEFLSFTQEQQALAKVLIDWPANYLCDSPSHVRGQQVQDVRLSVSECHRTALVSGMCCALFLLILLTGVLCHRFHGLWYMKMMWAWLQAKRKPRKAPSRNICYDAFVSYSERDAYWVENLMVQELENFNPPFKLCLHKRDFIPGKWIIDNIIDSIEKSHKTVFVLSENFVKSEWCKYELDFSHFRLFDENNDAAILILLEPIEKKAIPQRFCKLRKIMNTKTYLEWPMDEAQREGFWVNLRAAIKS

Row | EC50 (average of all runs (Table 4)) | EC50 (average of all runs (Table 3)) | Compound
1 | 351 to 1000 nM | – | CCCCCCC(=O)N[C@@H](CNC(=O)c1ccc(C(=O)N2C[C@@H](C(=O)N[C@H]3C[C@@H]3c3ccccc3)[C@H](C(=O)N[C@H]3C[C@@H]3c3ccccc3)C2)cc1)C(=O)NCCCC [Compound 131, (3S,4S)-1-(4-(((S)-3-(butylamino)-2-heptanamido-3-oxopropyl)carbamoyl)benzoyl)-N3,N4-bis((1S,2R)-2-phenylcyclopropyl)pyrrolidine-3,4-dicarboxamide]
2 | 351 to 1000 nM | – | CCCCCCCCCCCCCCNC(=O)[C@H]1CN(S(=O)(=O)c2cccc(C(=O)N3C[C@@H](C(=O)N[C@H]4C[C@@H]4c4ccccc4)[C@H](C(=O)N[C@H]4C[C@@H]4c4ccccc4)C3)c2)CCN1C(C)=O [Compound 192, (3S,4S)-1-(3-(((R)-4-acetyl-3-(tetradecylcarbamoyl)piperazin-1-yl)sulfonyl)benzoyl)-N3,N4-bis((1S,2R)-2-phenylcyclopropyl)pyrrolidine-3,4-dicarboxamide]
3 | – | 51 to 350 nM | CCCCCCNC(=O)C1CN(C(=O)c2ccc(C(=O)N3C[C@@H](C(=O)N[C@H]4C[C@@H]4c4ccccc4)[C@H](C(=O)N[C@H]4C[C@@H]4c4ccccc4)C3)cc2)CCN1C(=O)CCCCC (stereo partly drawn) [Compound 050, (3S,4S)-1-(4-(4-hexanoyl-3-(hexylcarbamoyl)piperazine-1-carbonyl)benzoyl)-N3,N4-bis((1S,2R)-2-phenylcyclopropyl)pyrrolidine-3,4-dicarboxamide]
4 | – | 351 to 1000 nM | CCCCCCNC(=O)C1CN(C(=O)c2ccc(C(=O)N3C[C@@H](C(=O)N[C@H]4C[C@@H]4c4ccccc4)[C@H](C(=O)N[C@H]4C[C@@H]4c4ccccc4)C3)cc2)CCN1C(=O)CCC (stereo partly drawn) [Compound 055, (3S,4S)-1-(4-(4-butyryl-3-(hexylcarbamoyl)piperazine-1-carbonyl)benzoyl)-N3,N4-bis((1S,2R)-2-phenylcyclopropyl)pyrrolidine-3,4-dicarboxamide]
5 | – | > 1000 nM | CCCCCCCCOC1CN(C(=O)c2ccc(C(=O)N3C[C@@H](C(=O)N[C@H]4C[C@@H]4c4ccccc4)[C@H](C(=O)N[C@H]4C[C@@H]4c4ccccc4)C3)cc2)C[C@H]1OCCCCCCCC (some centres unmarked) [Compound 020]
6 | 51 to 350 nM | – | CCCCCCCCCC(=O)N[C@@H](CN1Cc2cc(C(=O)N3C[C@@H](C(=O)N[C@H]4C[C@@H]4c4ccccc4)[C@H](C(=O)N[C@H]4C[C@@H]4c4ccccc4)C3)ccc2C1=O)C(=O)NCCCCCC [Compound 242, (3S,4S)-1-(2-((S)-2-decanamido-3-(hexylamino)-3-oxopropyl)-1-oxoisoindoline-5-carbonyl)-N3,N4-bis((1S,2R)-2-phenylcyclopropyl)pyrrolidine-3,4-dicarboxamide]
7 | > 1000 nM | – | CCCCCCCCCC(=O)NC(Cn1cnc2ccc(C(=O)N3C[C@@H](C(=O)N[C@H]4C[C@@H]4c4ccccc4)[C@H](C(=O)N[C@H]4C[C@@H]4c4ccccc4)C3)cc2c1=O)C(=O)NCCCCCC (stereo partly drawn) [Compound 248, (3S,4S)-1-(3-(2-decanamido-3-(hexylamino)-3-oxopropyl)-4-oxo-3,4-dihydroquinazoline-6-carbonyl)-N3,N4-bis((1S,2R)-2-phenylcyclopropyl)pyrrolidine-3,4-dicarboxamide]

The remaining lines, values behind:

Row | Compound | EC50 (average of all runs (Table 4)) | EC50 (average of all runs (Table 3))
8 | CCCCCCNC(=O)[C@@H]1CN(C(=O)c2ccc(C(=O)N3C[C@@H](C(=O)N[C@H]4C[C@@H]4c4ccccc4)[C@H](C(=O)N[C@H]4C[C@@H]4c4ccccc4)C3)cc2)C[C@H]1O (relative stereo) [Compound 033, (3S,4S)-1-(4-((3R*,4S*)-3-(hexylcarbamoyl)-4-hydroxypyrrolidine-1-carbonyl)benzoyl)-N3,N4-bis((1S,2R)-2-phenylcyclopropyl)pyrrolidine-3,4-dicarboxamide] | – | 51 to 350 nM
9 | CCCCCCNC(=O)[C@H](CNC(=O)c1ccc(C(=O)N2C[C@@H](C(=O)N[C@H]3C[C@@H]3c3ccccc3)[C@H](C(=O)N[C@H]3C[C@@H]3c3ccccc3)C2)cc1)NC(=O)NCCCCC [Compound 137, (3S,4S)-1-(4-(((S)-3-(hexylamino)-3-oxo-2-(3-pentylureido)propyl)carbamoyl)benzoyl)-N3,N4-bis((1S,2R)-2-phenylcyclopropyl)pyrrolidine-3,4-dicarboxamide] | 51 to 350 nM | –
10 | CCCCCCCCCCCCCCNC(=O)[C@H]1CN(C(=O)c2cccc(C(=O)N3C[C@@H](C(=O)N[C@H]4C[C@@H]4c4ccccc4)[C@H](C(=O)N[C@H]4C[C@@H]4c4ccccc4)C3)c2)CCN1C(C)=O [Compound 172, (3S,4S)-1-(3-((R)-4-acetyl-3-(tetradecylcarbamoyl)piperazine-1-carbonyl)benzoyl)-N3,N4-bis((1S,2R)-2-phenylcyclopropyl)pyrrolidine-3,4-dicarboxamide] | > 1000 nM | –
11 | CCCCCCNC(=O)[C@H](CNC(=O)c1ccc(C(=O)N2C[C@@H](C(=O)N[C@H]3C[C@@H]3c3ccccc3)[C@H](C(=O)N[C@H]3C[C@@H]3c3ccccc3)C2)cc1)NC(=O)CCc1ccc(F)cc1 [Compound 139, (3S,4S)-1-(4-(((S)-2-(3-(4-fluorophenyl)propanamido)-3-(hexylamino)-3-oxopropyl)carbamoyl)benzoyl)-N3,N4-bis ((1S,2R)-2-phenylcyclopropyl) pyrrolidine-3,4-dicarboxamide] | 0.1 to 50 nM | –
12 | CCCCCCNC(=O)[C@H](CN[C@@H](c1ccc(C(=O)N2C[C@@H](C(=O)N[C@H]3C[C@@H]3c3ccccc3)[C@H](C(=O)N[C@H]3C[C@@H]3c3ccccc3)C2)cc1)C(F)(F)F)NC(=O)CCCCCC (single isomer, unassigned) [Compound 148] | 351 to 1000 nM | –
13 | CCCCCN(CCCCC)C(=O)[C@H]1CCN(C(=O)c2ccc(C(=O)N3C[C@@H](C(=O)N[C@H]4C[C@@H]4c4ccccc4)[C@H](C(=O)N[C@H]4C[C@@H]4c4ccccc4)C3)cc2)C1 [Compound 022] | – | > 1000 nM
14 | CCCCCCCCCCCCCCNC(=O)[C@@H]1CN(C(=O)c2ccc(C(=O)N3C[C@@H](C(=O)N[C@H]4C[C@@H]4c4ccccc4)[C@H](C(=O)N[C@H]4C[C@@H]4c4ccccc4)C3)cc2)C[C@@H]1OC (single isomer, unassigned) [Compound 107, (3S,4S)-1-(4-((3R*,4R*)-3-methoxy-4-(tetradecylcarbamoyl)pyrrolidine-1-carbonyl)benzoyl)-N3,N4-bis((1S,2R)-2-phenylcyclopropyl)pyrrolidine-3,4-dicarboxamide] | 351 to 1000 nM | –
15 | CCCCCCCCCC(=O)N[C@@H](Cc1nc(-c2ccc(C(=O)N3C[C@@H](C(=O)N[C@H]4C[C@@H]4c4ccccc4)[C@H](C(=O)N[C@H]4C[C@@H]4c4ccccc4)C3)cc2)no1)C(=O)NCCCCCC [Compound 249, (3S,4S)-1-(4-(5-((S)-2-decanamido-3-(hexylamino)-3-oxopropyl)-1,2,4-oxadiazol-3-yl)benzoyl)-N3,N4-bis((1S,2R)-2-phenylcyclopropyl)pyrrolidine-3,4-dicarboxamide] | > 1000 nM | –
16 | CCCCCCCCCCCCCCNC(=O)C1CN(C(=O)c2ccc(C(=O)N3C[C@@H](C(=O)N[C@H]4C[C@@H]4c4ccccc4)[C@H](C(=O)N[C@H]4C[C@@H]4c4ccccc4)C3)cc2)CCN1C (stereo partly drawn) [Compound 023, (3S,4S)-1-(4-(4-methyl-3-(tetradecylcarbamoyl)piperazine-1-carbonyl)benzoyl)-N3,N4-bis((1S,2R)-2-phenylcyclopropyl)pyrrolidine-3,4-dicarboxamide formate] | – | 0.1 to 50 nM
17 | CCCCCCCC(=O)N1CCCN(S(=O)(=O)c2cccc(C(=O)N3C[C@@H](C(=O)N[C@H]4C[C@@H]4c4ccccc4)[C@H](C(=O)N[C@H]4C[C@@H]4c4ccccc4)C3)c2)C[C@H]1C(=O)NCCCCCC (single isomer, unassigned) [Compound 200] | > 1000 nM | –
